Read-outs that look alike come from different tables or passages of the source.
Columns and labels:
[1] = tested on: HBV DNA in the supernatant of HepG2.2.15; experiment: Determination of anti-HBV activity in HepG2.2.15 cell (HBV DNA in supernatant by qPCR); type: cell-based, Hepatitis B virus; conditions: HBV DNA, read-out: Experiment 2 Cell experiment EC50
HepG2 cells = experiment: Determination of cytotoxicity (HepG2 cells, resazurin assay, 4 days); type: cell-based; conditions: read-out: Experiment 3 Cytotoxicity CC50
Protocol: (§1) Experiment 3: Determination of Cytotoxicity
(§2) The cytotoxicity of the test compound was tested using HepG2 cells. The cells were incubated for 4 days in the presence of the test compound. Cell activity was assessed using the resazurin assay.

[2] = as above; type: cell-based; conditions: human, read-out: Experiment 3 Cytotoxicity CC50
Protocol: as §1, §2

Row | Structure (SMILES) | EC50 ([1]; HepG2.2.15 cells) [nM] | CC50 (HepG2 cells) [µM] | EC50 ([1]; Hepatitis B virus, HepG2.2.15, HepG2.2.15 cells) [nM] | CC50 at 4 days [2] [µM]
1 | CC(O)[C@H]1C=Cc2c(cn(C)c2C(=O)Nc2ccc(F)c(F)c2)S(=N)(=O)N1 (single isomer, unassigned) [Compound 30a2] | 100 to 1000 | > 30 |  | 
2 | CC(C)C[C@H]1CCc2c(cn(C)c2C(=O)Nc2ccc(F)c(C#N)c2)S(=O)(=NC2CC2)N1 (single isomer, unassigned) [Compound 60y2] | 0.1 to 100 | > 30 |  | 
3 | C[C@@H](OCc1ccccc1)[C@H]1C=Cc2c(cn(C)c2C(=O)Nc2cc(F)c(F)c(F)c2)S(=N)(=O)N1 (single isomer, unassigned) [Compound 10ddd2] | 0.1 to 100 | > 30 |  | 
4 | C[C@@H](OCc1ccccc1)[C@H]1C=Cc2c(cn(C)c2C(=O)Nc2ccc(F)c(C#N)c2)S(=N)(=O)N1 (single isomer, unassigned) [Compound 10ccc2] | 0.1 to 100 | > 30 |  | 
5 | Cn1cc2c(c1C(=O)Nc1ccc(F)c(F)c1)C=C[C@H](CO)NS2(=N)=O (single isomer, unassigned) [Compound 30g2] | 100 to 1000 | > 30 |  | 
6 | CN=S1(=O)N[C@@H](C(C)C)CCc2c1cn(C)c2C(=O)Nc1ccc(F)c(F)c1 (single isomer, unassigned) [Compound 60a2] | 0.1 to 100 | > 30 |  | 
7 | CN=S1(=O)N[C@@H](C(C)C)C=Cc2c1cn(C)c2C(=O)Nc1ccc(F)c(F)c1 (single isomer, unassigned) [Compound 50a2] | 0.1 to 100 | > 30 |  | 
8 | CC(C)[C@@H]1C=Cc2c(cn(C)c2C(=O)Nc2ccc(F)c(C#N)c2)S(=N)(=O)N1 (single isomer, unassigned) [Compound 10h2] | > 1000 | > 30 |  | 
9 | CC(C)[C@H]1CCc2c(nn(C)c2C(=O)Nc2ccc(F)c(C#N)c2)S(=N)(=O)N1 (single isomer, unassigned) [Compound 80a2] | 0.1 to 100 | > 30 |  | 
10 | CC(C)[C@H]1C=Cc2c(cn(C)c2C(=O)Nc2cc(F)c(F)c(F)c2)S(=N)(=O)N1 (single isomer, unassigned) [Compound 10c2] | 0.1 to 100 | > 30 |  | 
11 | CC(O)[C@H]1C=Cc2c(cn(C)c2C(=O)Nc2ccc(F)c(C#N)c2)S(=N)(=O)N1 (single isomer, unassigned) [Compound 30b2] | 100 to 1000 | > 30 |  | 
12 | CC(C)[C@H]1CCc2c(cn(C)c2C(=O)Nc2ccc(F)c(C#N)c2)S(=N)(=O)N1 (single isomer, unassigned) [Compound 20b2] | 0.1 to 100 | > 30 |  | 
13 | CC(O)[C@H]1CCc2c(cn(C)c2C(=O)Nc2ccc(F)c(F)c2)S(=N)(=O)N1 (single isomer, unassigned) [Compound 40a2] | 100 to 1000 | > 30 |  | 
14 | CC(C)C[C@H]1CCc2c(cn(C)c2C(=O)Nc2ccc(F)c(C#N)c2)S(=O)(=NC(C)C)N1 (single isomer, unassigned) [Compound 60x2] | 0.1 to 100 | > 30 |  | 
15 | CN=S1(=O)N[C@@H](CC(C)C)C=Cc2c1cn(C)c2C(=O)Nc1ccc(F)c(C#N)c1 (single isomer, unassigned) [Compound 50s2] | 0.1 to 100 | > 30 |  | 
16 | COc1ccc(CC[C@H](C)[C@H]2C=Cc3c(cn(C)c3C(=O)Nc3cc(F)nc(C#N)c3)S(=N)(=O)N2)cc1 (single isomer, unassigned) [Compound 10vvv2] | 0.1 to 100 | > 30 |  | 
17 | Cn1cc2c(c1C(=O)Nc1ccnc(C(F)F)c1)CC[C@H](C1CCCCC1)NS2(=N)=O (single isomer, unassigned) [Compound 20ee2] | 0.1 to 100 | > 30 |  | 
18 | CC(C)C[C@H]1CCc2c(nn(C)c2C(=O)Nc2ccc(F)c(C#N)c2)S(=N)(=O)N1 (single isomer, unassigned) [Compound 80b2] | 0.1 to 100 | > 30 |  | 
19 | CC(C)[C@H]1C=Cc2c(cn(C)c2C(=O)Nc2ccc(F)c(C#N)c2)S(=N)(=O)N1 (single isomer, unassigned) [Compound 10b2] |  | > 30 | 0.1 to 100 | 
20 | COc1ccc(CC[C@H](C)[C@H]2CCc3c(cn(C)c3C(=O)Nc3cc(F)c(F)c(F)c3)S(=N)(=O)N2)cc1 (single isomer, unassigned) [Compound 20ttt2] | 0.1 to 100 | > 30 |  | 
21 | CC(C)C[C@H]1C=Cc2c(nn(C)c2C(=O)Nc2ccc(F)c(C#N)c2)S(=N)(=O)N1 (single isomer, unassigned) [Compound 70b2] | 0.1 to 100 | > 30 |  | 

Row | Structure (SMILES) | EC50 ([1]; HepG2.2.15 cells) [nM] | CC50 (HepG2 cells) [µM] | EC50 ([1]; Hepatitis B virus, HepG2.2.15, HepG2.2.15 cells) [nM] | CC50 at 4 days [2] [µM]
22 | CN=S1(=O)N[C@@H](CC(C)C)CCc2c1nn(C)c2C(=O)Nc1ccc(F)c(C#N)c1 (single isomer, unassigned) [Compound 90b2] | 0.1 to 100 | > 30 |  | 
23 | CC(C)C[C@H]1C=Cc2c(cn(C)c2C(=O)Nc2ccc(F)c(C#N)c2)S(=O)(=NC(C)C)N1 (single isomer, unassigned) [Compound 50u2] | 0.1 to 100 | > 30 |  | 
24 | CC(C)[C@H]1C=Cc2c(nn(C)c2C(=O)Nc2ccc(F)c(C#N)c2)S(=N)(=O)N1 (single isomer, unassigned) [Compound 70a2] | 0.1 to 100 | > 30 |  | 
25 | CC(C)[C@@H]1C=Cc2c(cn(C)c2C(=O)Nc2ccc(F)c(F)c2)S(=N)(=O)N1 (single isomer, unassigned) [Compound 10g2] | 0.1 to 100 | > 30 |  | 
26 | CCN=S1(=O)N[C@@H](CC(C)C)CCc2c1cn(C)c2C(=O)Nc1ccc(F)c(C#N)c1 (single isomer, unassigned) [Compound 60w2] | 0.1 to 100 | > 30 |  | 
27 | CC(O)[C@H]1C=Cc2c(cn(C)c2C(=O)Nc2cc(F)c(F)c(F)c2)S(=N)(=O)N1 (single isomer, unassigned) [Compound 30c2] | 100 to 1000 | > 30 |  | 
28 | Cn1cc2c(c1C(=O)Nc1ccc(F)c(F)c1)C=C[C@H](C1CCCCC1)NS2(=N)=O (single isomer, unassigned) [Compound 10bb2] | 0.1 to 100 | > 30 |  | 
29 | CC[C@H](C)[C@H]1C=Cc2c(cn(C)c2C(=O)Nc2ccc(F)c(C#N)c2)S(=N)(=O)N1 (single isomer, unassigned) [Compound 10o2] | 0.1 to 100 | > 30 |  | 
30 | C[C@@H](OCc1ccccc1)[C@H]1CCc2c(cn(C)c2C(=O)Nc2ccc(F)c(C#N)c2)S(=N)(=O)N1 (single isomer, unassigned) [Compound 20ccc2] | 0.1 to 100 | > 30 |  | 
31 | CC(C)[C@H]1C=Cc2c(cn(C)c2C(=O)Nc2ccc(F)c(F)c2)S(=N)(=O)N1 (single isomer, unassigned) [Compound 10a2] | 0.1 to 100 | > 30 |  | 
32 | CC(C)[C@H]1CCc2c(cn(C)c2C(=O)Nc2ccc(F)c(F)c2)S(=N)(=O)N1 (single isomer, unassigned) [Compound 20a2] | 0.1 to 100 | > 30 |  | 
33 | CC(O)[C@H]1CCc2c(cn(C)c2C(=O)Nc2ccc(F)c(C#N)c2)S(=N)(=O)N1 (single isomer, unassigned) [Compound 40b2] | 100 to 1000 | > 30 |  | 
34 | CN=S1(=O)N[C@@H](CC(C)C)CCc2c1cn(C)c2C(=O)Nc1ccc(F)c(C#N)c1 (single isomer, unassigned) [Compound 60v2] | 0.1 to 100 | > 30 |  | 
35 | CC(C)[C@H]1C=Cc2c(cn(C)c2C(=O)Nc2cc(F)nc(C#N)c2)S(=N)(=O)N1 (single isomer, unassigned) [Compound 10e2] | 0.1 to 100 | > 30 |  | 
36 | CCN=S1(=O)N[C@@H](CC(C)C)C=Cc2c1cn(C)c2C(=O)Nc1ccc(F)c(C#N)c1 (single isomer, unassigned) [Compound 50t2] | 0.1 to 100 | > 30 |  | 
37 | CC(C)[C@H]1C=Cc2c(cn(C)c2C(=O)Nc2ccnc(C(F)F)c2)S(=N)(=O)N1 (single isomer, unassigned) [Compound 10f1] | 100 to 1000 |  |  | > 30
38 | CN=S1(=O)N[C@@H](CC(C)C)C=Cc2c1cn(C)c2C(=O)Nc1ccc(F)c(C#N)c1 (single isomer, unassigned) [Compound 50s1] | 100 to 1000 |  |  | > 30
39 | Cn1cc2c(c1C(=O)Nc1ccnc(C(F)F)c1)CC[C@H](C1CCCCC1)NS2(=N)=O (single isomer, unassigned) [Compound 20ee1] | 100 to 1000 |  |  | > 30
40 | CC(C)C[C@H]1C=Cc2c(cn(C)c2C(=O)Nc2ccc(F)c(C#N)c2)S(=O)(=NC2CC2)N1 (single isomer, unassigned) [Compound 50v1] | 100 to 1000 |  |  | > 30
41 | CC(C)C[C@H]1C=Cc2c(cn(C)c2C(=O)Nc2cc(F)nc(C#N)c2)S(=N)(=O)N1 (single isomer, unassigned) [Compound 10w1] | 100 to 1000 |  |  | > 30
